Reference: patent US9920060B2, “Pyrazolo[3,4-d]pyrimidine compound or salt thereof” (TAIHO PHARMACEUTICAL CO., LTD., priority 2015, dated 2018)

These compounds were tested against purified recombinant human HER2 protein (Homo sapiens (Human), UniProt P04626) (assay: Inhibitory effect on HER2-phosphorylating activity (in vitro)). Conditions: ATP 6 uM, substrate peptide 0.5 uM, 25° C. for 40 minutes.
Format: biochemical
Procedure: Next, the HER2 protein, the substrate peptide (final concentration: 0.5 uM), manganese chloride (final concentration: 10 mM), ATP (final concentration: 6 uM), and the solution of the compound of the present invention in DMSO (final concentration of DMSO: 5%) were added into a buffer solution for kinase reaction (15 mM Tris (pH 7.5), 2 mM dithiothreitol, and 0.01% Tween 20), and the mixture was incubated at 25° C. for 40 minutes for kinase reaction. The reaction was terminated by adding EDTA (final concentration: 30 mM) thereto. Finally, the unphosphorylated substrate peptide (S) and the phosphorylated peptide (P) were separated and detected by microcapillary electrophoresis using LabChip® EZ Reader II (PerkinElmer Inc.).

Sequence of purified recombinant human HER2 protein (P04626 23-1255): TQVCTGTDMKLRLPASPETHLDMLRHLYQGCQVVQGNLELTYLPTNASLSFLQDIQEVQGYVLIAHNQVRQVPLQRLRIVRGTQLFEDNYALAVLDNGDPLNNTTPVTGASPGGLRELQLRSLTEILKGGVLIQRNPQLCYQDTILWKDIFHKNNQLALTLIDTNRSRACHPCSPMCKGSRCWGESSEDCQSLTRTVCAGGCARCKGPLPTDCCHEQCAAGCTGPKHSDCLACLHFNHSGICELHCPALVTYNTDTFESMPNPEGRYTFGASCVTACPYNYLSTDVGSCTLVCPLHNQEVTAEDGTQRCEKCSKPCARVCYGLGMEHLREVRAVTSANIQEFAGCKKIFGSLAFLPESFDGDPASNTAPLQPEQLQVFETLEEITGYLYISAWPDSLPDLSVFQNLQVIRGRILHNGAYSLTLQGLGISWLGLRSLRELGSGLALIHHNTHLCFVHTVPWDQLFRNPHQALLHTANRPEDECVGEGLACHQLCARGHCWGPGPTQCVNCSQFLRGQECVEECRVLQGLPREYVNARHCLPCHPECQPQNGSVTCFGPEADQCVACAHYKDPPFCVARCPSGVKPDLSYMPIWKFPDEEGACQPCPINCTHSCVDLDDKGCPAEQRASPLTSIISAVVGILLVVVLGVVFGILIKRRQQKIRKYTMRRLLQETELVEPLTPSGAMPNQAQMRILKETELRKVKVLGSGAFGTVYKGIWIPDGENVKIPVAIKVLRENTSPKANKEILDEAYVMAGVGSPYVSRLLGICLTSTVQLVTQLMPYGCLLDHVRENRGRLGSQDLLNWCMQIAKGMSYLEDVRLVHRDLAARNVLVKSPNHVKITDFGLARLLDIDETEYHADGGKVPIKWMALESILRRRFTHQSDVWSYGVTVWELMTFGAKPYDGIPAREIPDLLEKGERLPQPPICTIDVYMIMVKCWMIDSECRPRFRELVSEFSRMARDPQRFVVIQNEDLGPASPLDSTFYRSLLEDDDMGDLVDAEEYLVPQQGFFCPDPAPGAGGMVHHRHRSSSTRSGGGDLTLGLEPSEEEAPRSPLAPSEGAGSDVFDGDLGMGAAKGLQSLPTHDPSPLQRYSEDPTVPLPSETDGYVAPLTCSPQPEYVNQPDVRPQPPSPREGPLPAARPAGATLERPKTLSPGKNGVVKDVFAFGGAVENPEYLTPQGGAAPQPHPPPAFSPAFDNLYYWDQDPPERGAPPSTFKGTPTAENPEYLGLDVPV

Row | IC50 [nM] | Compound
1 | 5 | C=CC(=O)N1CC(F)C[C@@H](n2nc(C(=O)Nc3ccc(CC(=O)N(C)C)cc3Cl)c3c(N)ncnc32)C1 (stereo partly drawn) [Example 76, 1-((3R)-1-acryloyl-5-fluoropiperidin-3-yl)-4-amino-N-(2-chloro-4-(2-(dimethylamino)-2-oxoethyl)phenyl)-1H-pyrazolo[3,4-d]pyrimidine-3-carboxamide]
2 | 16 | C=CC(=O)N1CCC[C@@H](n2nc(C(=O)Nc3ccc(NC(=O)N4CCCC4)cc3C)c3c(N)ncnc32)C1 [Example 75, (R)-1-(1-acryloylpiperidin-3-yl)-4-amino-N-(2-methyl-4-(pyrrolidine-1-carboxamido)phenyl)-1H-pyrazolo[3,4-d]pyrimidine-3-carboxamide]
3 | 13 | C=CC(=O)N1CC(F)C[C@@H](n2nc(C(=O)Nc3ccc(CC(=O)N(C)C)c(C)c3C)c3c(N)ncnc32)C1 (stereo partly drawn) [Example 77, 1-((3R)-1-acryloyl-5-fluoropiperidin-3-yl)-4-amino-N-(4-(2-(dimethylamino)-2-oxoethyl)-2,3-dimethylphenyl)-1H-pyrazolo[3,4-d]pyrimidine-3-carboxamide]
4 | 21 | C=CC(=O)N1CCC[C@@H](n2nc(C(=O)Nc3ccc(CC(=O)N(C)C)cc3F)c3c(N)ncnc32)C1 [Example 25, (R)-1-(1-acryloylpiperidin-3-yl)-4-amino-N-(4-(2-(dimethylamino)-2-oxoethyl)-2-fluorophenyl)-1H-pyrazolo[3,4-d]pyrimidine-3-carboxamide]
5 | 11 | C=CC(=O)N1CCC[C@@H](n2nc(C(=O)Nc3ccc(CC(=O)N(C)C)c4ccccc34)c3c(N)ncnc32)C1 [Example 5, (R)-1-(1-acryloylpiperidin-3-yl)-4-amino-N-(4-(2-(dimethylamino)-2-oxoethyl)naphthalen-1-yl)-1H-pyrazolo[3,4-d]pyrimidine-3-carboxamide]
6 | 74 | C=CC(=O)N1CCC[C@@H](n2nc(C(=O)Nc3ccc(CC(=O)N4CC(O)C4)cc3C)c3c(N)ncnc32)C1 [Example 73, (R)-1-(1-acryloylpiperidin-3-yl)-4-amino-N-(4-(2-(3-hydroxyazetidin-1-yl)-2-oxoethyl)-2-methylphenyl)-1H-pyrazolo[3,4-d]pyrimidine-3-carboxamide]
7 | 13 | C=CC(=O)N1CCC[C@@H](n2nc(C(=O)Nc3ccc(CC(=O)N(C)C)c(C)c3C)c3c(N)ncnc32)C1 [Example 13, (R)-1-(1-acryloylpiperidin-3-yl)-4-amino-N-(4-(2-(dimethylamino)-2-oxoethyl)-2,3-dimethylphenyl)-1H-pyrazolo[3,4-d]pyrimidine-3-carboxamide]
8 | 22 | C=CC(=O)N1CCC[C@@H](n2nc(C(=O)Nc3cc(C)c(CC(=O)N(C)C)cc3C)c3c(N)ncnc32)C1 [Example 39, (R)-1-(1-acryloylpiperidin-3-yl)-4-amino-N-(4-(2-(dimethylamino)-2-oxoethyl)-2,5-dimethylphenyl)-1H-pyrazolo[3,4-d]pyrimidine-3-carboxamide]
9 | 11 | C=CC(=O)N1CCC[C@@H](n2nc(C(=O)Nc3ccc(CC(=O)N4CCCC4)cc3C)c3c(N)ncnc32)C1 [Example 71, (R)-1-(1-acryloylpiperidin-3-yl)-4-amino-N-(2-methyl-4-(2-oxo-2-(pyrrolidin-1-yl)ethyl)phenyl)-1H-pyrazolo[3,4-d]pyrimidine-3-carboxamide]
10 | 17 | C=CC(=O)N1CCC[C@@H](n2nc(C(=O)Nc3ccc(NC(=O)N(C)C)cc3C)c3c(N)ncnc32)C1 [Example 74, (R)-1-(1-acryloylpiperidin-3-yl)-4-amino-N-(4-(3,3-dimethylureido)-2-methylphenyl)-1H-pyrazolo[3,4-d]pyrimidine-3-carboxamide]

Row | Compound | IC50 [nM]
11 | C=CC(=O)N1CCC[C@@H](n2nc(C(=O)Nc3ccc(OC(=O)N(C)C)cc3)c3c(N)ncnc32)C1 [Example 21, (R)-4-(1-(1-acryloylpiperidin-3-yl)-4-amino-1H-pyrazolo[3,4-d]pyrimidine-3-carboxamido)phenyldimethyl carbamate] | 26

Each compound was assayed on A431 cells (assay: Cytostatic activity against EGFR-expressing cell line A431 (CellTiter-Glo)). Conditions: EGFR-overexpressing human epithelioid cancer cell line, 3-day culture; read-out: A431 cell growth inhibitory activity IC50 value.
Format: cell-based
Text: HER2-overexpressing human stomach cancer cell line NCI-N87 cells were suspended in RPMI1640 medium (manufactured by Life Technologies Corp.) containing 10% fetal bovine serum. Meanwhile, EGFR-overexpressing highly activated human epithelioid cancer cell line A431 cells were suspended in DMEM, high glucose medium (manufactured by Life Technologies Corp.) containing 10% fetal bovine serum. Subsequently, each cell suspension was inoculated to each well of a 384-well flat-bottom microplate and cultured at 37° C. for 1 day in an incubator containing 5% carbon dioxide. The compound of the present invention or Comparative Example compound 1 was dissolved in DMSO, and the test compound was diluted into a concentration of 500 times the final concentration using DMSO. The solution of the test compound in DMSO was diluted with the medium used in the suspension of each cell line, and this solution was added at a final concentration of DMSO of 0.2% to each well of the cell culture plate, followed by further culture at 37° C. for 3 days in an incubator containing 5% carbon dioxide.
Rate of growth inhibition (%)=(C−T)/(C)×100 T: Luminescence intensity of a well supplemented with the test compound C: Luminescence intensity of a well not supplemented with the test compound

Row | Compound | IC50 [nM]
12 | (R,E)-4-(4-amino-1-(1-(4-dimethylamino)but-2-enoyl)piperidin-3-yl)-1H-pyrazolo[3,4-d]pyrimidine-3-carboxamido)naphthalen-1-yl dimethylcarbamate [Example 66] | 6040
